According to paper PMC6471591, “Preparation of Sesquiterpene Lactone Derivatives: Cytotoxic Activity and Selectivity of Action” (Molecules, 2019):
Like-named read-outs stand apart in the source and are kept apart here.

Columns and labels:
A549 cells [1] = assay: Antiproliferative SRB assay (NCI protocol), 48 h; assay type: cell-based; conditions: Homo sapiens, read-out: 50% growth inhibition (GI50) ± SD, A549
Protocol: (§1) In vitro antiproliferative activity was evaluated using the protocol of the National Cancer Institute (NCI) after 48 h of drug exposure using the sulforhodamine B (SRB) assay. […] We cannot discard that increasing lipophilicity may well result in an increase in cytotoxicity in vitro.
(§2) The following human solid tumor cell lines were used in this study: HBL-100 (breast), HeLa (cervix), SW1573 (non-small cell lung), T-47D (breast), A549 (lung), and WiDr (colon). Cells were maintained in 25 cm^2 culture flasks in RPMI 1640 supplemented with 5% heat-inactivated fetal calf serum and 2 mM L-glutamine in a 37 °C, 5% CO2, 95% humidified air incubator. Exponentially growing cells were trypsinized and resuspended in antibiotic containing medium (100 units penicillin G and 0.1 mg of streptomycin per mL). Single-cell suspensions displaying >97% viability by trypan blue dye exclusion test were subsequently counted. After counting, dilutions were made to give the appropriate cell densities for inoculation onto 96-well microtiter plates. Cells were inoculated in a volume of 100 μL per well at densities of 20,000 (WiDr), 15,000 (T-47D and A549), and 10,000 (HeLa, SW1573, and HBL-100) cells per well, based on their doubling times.
(§3) Chemosensitivity tests were performed using the SRB assay of the NCI with slight modifications. Briefly, pure compounds were initially dissolved in DMSO at 400 times the desired final maximum test concentration. Control cells were exposed to an equivalent concentration of DMSO (0.25% v/v, negative control). Each agent was tested in triplicate at different dilutions in the range 1–100 μM. Drug treatment started on day 1 after plating. Drug incubation periods were 48 h, after which cells were precipitated with 25 μL of ice-cold 50% (w/v) trichloroacetic acid and fixed for 60 min at 4 °C. Then, the SRB assay was performed. Optical density (OD) of each well was measured at 492 nm, using BioTek’s PowerWave XS Absorbance Microplate Reader (Highland Park, Winooski, VT, USA). Values were corrected for background OD from wells containing only culture medium. The percentage growth (PG) was calculated with respect to untreated control cells (C) at each level of drug concentrations based on the difference in OD at the start time (T0) and at the end of drug exposure (T), according to NCI formulas. Therefore, if T is greater than or equal to T0, the calculation is 100 × [(T–T0)/(C–T0)]. If T is lower than T0, denoting cell death, the calculation is 100 × [(T–T0)/(T0)]. The effect is defined as the growth percentage, where 50% growth inhibition (GI50) represents the concentration at which PG is +50. Based on these calculations, a PG value of 0 corresponds to the number of cells present at the beginning of drug exposure, while negative PG values denote net cell death.

HBL100 cells [2] = assay: Antiproliferative SRB assay (NCI protocol), 48 h; assay type: cell-based; conditions: Homo sapiens, read-out: 50% growth inhibition (GI50) ± SD, HBL100
Protocol: as §1, §2, §3

HeLa cells [3] = assay: Antiproliferative SRB assay (NCI protocol), 48 h; assay type: cell-based; conditions: Homo sapiens, read-out: 50% growth inhibition (GI50) ± SD, HeLa
Protocol: as §1, §2, §3

SW1573 cells = assay: Antiproliferative SRB assay (NCI protocol), 48 h; assay type: cell-based, human; conditions: for GI50: Homo sapiens, read-out: 50% growth inhibition (GI50) ± SD, SW1573; for Selectivity Index, SW1573: splenocyte CC50 versus SW1573 GI50
Protocol: as §1, §2, §3

T47-D cells = assay: Antiproliferative SRB assay (NCI protocol), 48 h; assay type: cell-based, human; conditions: for GI50: Homo sapiens, T47D, read-out: 50% growth inhibition (GI50) ± SD, T47-D; for Selectivity Index, T47-D: splenocyte CC50 versus T47-D GI50
Protocol: as §1, §2, §3

WiDr cells = assay: Antiproliferative SRB assay (NCI protocol), 48 h; assay type: cell-based, human; conditions: for GI50: Homo sapiens, read-out: 50% growth inhibition (GI50) ± SD, WiDr; for Selectivity Index, WiDr: splenocyte CC50 versus WiDr GI50
Protocol: as §1, §2, §3

[4] = Cytotoxicity on primary cell culture (propidium iodide, flow cytometry); assay type: cell-based; conditions: Balb/c mouse spleen cells, 48 h incubation, PI staining, read-out: CC50 ± SD, splenocytes (concentration that causes 50% cell death)
Protocol: The cytotoxicity of the sesquiterpene lactones and its derivatives was evaluated using mouse splenocytes. […] Cumanin derivatives (4–11) have shown CC50 values and selectivity indexes higher than natural compound 1. […] The incorporation of two triazole groups in cumanin (1) reduced cytotoxicity on normal cells and improved selectivity against tumor cell lines.
In a 96-well plate, spleen cells from Balb/c mouse (1.5 × 10^5) were incubated with different drug dilutions (200, 100, 50, 10, and 5 μg/mL) in RPMI medium containing 10% fetal calf serum. After 48 h of incubation at 37 °C (5% CO2), cells were harvested, washed once with PBS, and stained with 2.5 μg/mL propidium iodide (PI) for 5 min at room temperature. Subsequently, cell death was assessed by flow cytometry using a BD FACSaria II cytometer. Cells incubated only with a drug vehicle were used as a 100% viability control and death percentage was calculated according to the following formula: Death(%)=[1−(%PI^−cells)drug−treated/(%PI^−cells)100% viability control]×100.
Then the concentration capable of causing cell death in 50% of splenocytes (CC50) was determined using a non-linear regression approach.

A549 cells [5] = assay: Antiproliferative SRB assay (NCI protocol), 48 h; assay type: cell-based, human; conditions: splenocyte CC50 versus A549 GI50
HBL100 cells [6] = assay: Antiproliferative SRB assay (NCI protocol), 48 h; assay type: cell-based, human; conditions: splenocyte CC50 versus HBL100 GI50
HeLa cells [7] = assay: Antiproliferative SRB assay (NCI protocol), 48 h; assay type: cell-based, human; conditions: splenocyte CC50 versus HeLa GI50
[8] = A549 (lung), SRB, 48 h drug exposure
[9] = HBL-100, HBL100 (breast), SRB, 48 h drug exposure
[10] = HeLa (cervix), SRB, 48 h drug exposure
[11] = SW1573 (non-small cell lung), SRB, 48 h drug exposure
[12] = T47-D (breast), SRB, 48 h drug exposure
[13] = WiDr (colon), SRB, 48 h drug exposure

SMILES | GI50 (A549 cells [1]; A549, 48 h) [nM] | GI50 (HBL100 cells [2]; HBL-100, 48 h) [nM] | GI50 (HeLa cells [3]; HeLa, 48 h) [nM] | GI50 (SW1573 cells; SW1573, 48 h) [nM] | Selectivity Index, SW1573 (SW1573 cells) | GI50 (T47-D cells; 48 h) [nM] | Selectivity Index, T47-D (T47-D cells) | GI50 (WiDr cells; WiDr, 48 h) [nM] | Selectivity Index, WiDr (WiDr cells) | CC50 at 48 h [4] [nM] | Selectivity Index, A549 (A549 cells [5]) | Selectivity Index, HBL100 (HBL100 cells [6]) | Selectivity Index, HeLa (HeLa cells [7]) | GI50 (A549 cells [1]; [8]) [nM] | GI50 (HBL100 cells [2]; [9]) [nM] | GI50 (HeLa cells [3]; [10]) [nM] | GI50 (SW1573 cells; [11]) [nM] | GI50 (T47-D cells; [12]) [nM] | GI50 (WiDr cells; [13]) [nM] | CC50 at 48 h ([4]; primary mouse splenocytes (spleen cells)) [nM]
C=C1C(=O)O[C@@H]2C[C@@H](C)[C@@H]3C=CC(=O)[C@@]3(C)[C@@H](O)[C@H]12 [Compound 2, helenalin] | 2300 | 2800 | 1700 | 2200 | 0.5 | 2900 | 0.4 | 2700 | 0.4 | 1200 | 0.5 | 0.4 | 0.7 |  |  |  |  |  |  | 
C=C1C(=O)O[C@@H]2C[C@H](C)[C@@H]3C[C@H](O[Si](C)(C)C)[C@H](O[Si](C)(C)C)[C@@]3(C)C[C@H]12 [Compound 5] |  |  |  |  | 36.9 |  | 34.9 |  | 30.2 |  | 27.7 | 18.4 | 22.9 | 2400 | 3600 | 2900 | 1800 | 1900 | 2200 | 
C=C1C(=O)O[C@@H]2C[C@H](C)[C@@H]3C[C@H](O[Si](c4ccccc4)(c4ccccc4)C(C)(C)C)[C@H](O)[C@@]3(C)C[C@H]12 [Compound 7] |  |  |  |  | 95.1 |  | 42.0 |  | 46.0 |  | 89.2 | 38.6 | 71.3 | 1600 | 3700 | 2000 | 1500 | 3400 | 3100 | 
C=C1C(=O)OC2CC(C)C3CC(OCc4cn(Cc5ccccc5)nn4)C(OCc4cn(Cc5ccccc5)nn4)C3(C)CC12 (centres unmarked) [Compound 11] |  |  |  |  | 111.5 |  | 54.0 |  | 227.9 |  | 141.6 | 81.9 | 88.8 | 3700 | 6400 | 5900 | 4700 | 9700 | 2300 | 524000
